# According to the supplement of paper PMC10307832:
# Experiments:
# Assay in all cases: relative viability (nuclei count vs DMSO), 5 days (fraction); higher = more cells survive
# Vorinostat + Foretinib = compound: O=C(CCCCCCC(=O)Nc1ccccc1)NO [Vorinostat] + COc1cc2c(Oc3ccc(NC(=O)C4(C(=O)Nc5ccc(F)cc5)CC4)cc3F)ccnc2cc1OCCCN1CCOCC1 [Foretinib] (partner 0.25 µM)
# Procedure, shortened: (§1)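 Medians of duplicate plates are given as relative viability. That measure is the nuclei count in treated wells divided by the count in vehicle wells. Counts were taken on 4× images of lung cancer cell lines in 1536-well plates, 5 days after pin-tool dosing the day after seeding with one drug alone or a fixed anchor-drug dose plus five library-drug doses (not always all listed) in √10 steps.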
# Vorinostat + Bortezomib = compound: O=C(CCCCCCC(=O)Nc1ccccc1)NO [Vorinostat] + CC(C)C[C@H](NC(=O)[C@H](Cc1ccccc1)NC(=O)c1cnccn1)B(O)O [Bortezomib] (partner 0.002 µM)
# Procedure, shortened: as §1
# Vorinostat + Pictilisib = compound: O=C(CCCCCCC(=O)Nc1ccccc1)NO [Vorinostat] + CS(=O)(=O)N1CCN(Cc2cc3nc(-c4cccc5[nH]ncc45)nc(N4CCOCC4)c3s2)CC1 [Pictilisib] (partner 1 µM)
# Procedure, shortened: as §1
# Vorinostat + Linsitinib = compound: O=C(CCCCCCC(=O)Nc1ccccc1)NO [Vorinostat] + C[C@]1(O)C[C@@H](c2nc(-c3ccc4ccc(-c5ccccc5)nc4c3)c3c(N)nccn32)C1 [Linsitinib] (partner 1 µM)
# Procedure, shortened: as §1
# Vorinostat + Crizotinib = compound: O=C(CCCCCCC(=O)Nc1ccccc1)NO [Vorinostat] + C[C@@H](Oc1cc(-c2cnn(C3CCNCC3)c2)cnc1N)c1c(Cl)ccc(F)c1Cl [Crizotinib] (partner 1 µM)
# Procedure, shortened: as §1
# Vorinostat + Alpelisib = compound: O=C(CCCCCCC(=O)Nc1ccccc1)NO [Vorinostat] + Cc1nc(NC(=O)N2CCC[C@H]2C(N)=O)sc1-c1ccnc(C(C)(C)C(F)(F)F)c1 [Alpelisib] (partner 2 µM)
# Procedure, shortened: as §1
# Vorinostat + Navitoclax = compound: O=C(CCCCCCC(=O)Nc1ccccc1)NO [Vorinostat] + CC1(C)CCC(c2ccc(Cl)cc2)=C(CN2CCN(c3ccc(C(=O)NS(=O)(=O)c4ccc(N[C@H](CCN5CCOCC5)CSc5ccccc5)c(S(=O)(=O)C(F)(F)F)c4)cc3)CC2)C1 [Navitoclax] (partner 0.5 µM)
# Procedure, shortened: as §1
# Vorinostat + Lapatinib = compound: O=C(CCCCCCC(=O)Nc1ccccc1)NO [Vorinostat] + CS(=O)(=O)CCNCc1ccc(-c2ccc3ncnc(Nc4ccc(OCc5cccc(F)c5)c(Cl)c4)c3c2)o1 [Lapatinib] (partner 2 µM)
# Procedure, shortened: as §1
# Vorinostat + Olaparib = compound: O=C(CCCCCCC(=O)Nc1ccccc1)NO [Vorinostat] + O=C(c1cc(Cc2n[nH]c(=O)c3ccccc23)ccc1F)N1CCN(C(=O)C2CC2)CC1 [Olaparib] (partner 8 µM)
# Procedure, shortened: as §1
# Vorinostat = compound: O=C(CCCCCCC(=O)Nc1ccccc1)NO [Vorinostat]
# Procedure, shortened: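 Following overnight incubation at 37 °C, lung cancer cell lines in 1536-well plates were pinned with five library-drug doses (not always all listed) in √10 steps on vehicle-anchored plates. The cells then spent 5 days without medium change before a combined fix, permeabilisation and Hoechst stain, 4× imaging and MetaXpress nuclear counts. Viability is the treated-to-vehicle ratio of nuclei, taken as the median across plates. Only plates with control CV below 25% and at least one doubling passed.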
# Vorinostat + Palbociclib = compound: O=C(CCCCCCC(=O)Nc1ccccc1)NO [Vorinostat] + CC(=O)c1c(C)c2cnc(Nc3ccc(N4CCNCC4)cn3)nc2n(C2CCCC2)c1=O [Palbociclib] (partner 0.5 µM)
# Procedure, shortened: as §1
# Vorinostat + Decitabine = compound: O=C(CCCCCCC(=O)Nc1ccccc1)NO [Vorinostat] + Nc1ncn([C@H]2C[C@H](O)[C@@H](CO)O2)c(=O)n1 [Decitabine] (partner 2 µM)
# Procedure, shortened: as §1
# Vorinostat + Trametinib = compound: O=C(CCCCCCC(=O)Nc1ccccc1)NO [Vorinostat] + CC(=O)Nc1cccc(-n2c(=O)n(C3CC3)c(=O)c3c(Nc4ccc(I)cc4F)n(C)c(=O)c(C)c32)c1 [Trametinib] (partner 0.02 µM)
# Procedure, shortened: as §1
# Vorinostat + OSI-027 = compound: O=C(CCCCCCC(=O)Nc1ccccc1)NO [Vorinostat] + COc1cccc2cc(-c3nc([C@H]4CC[C@H](C(=O)O)CC4)n4ncnc(N)c34)[nH]c12 [OSI-027] (partner 0.5 µM)
# Procedure, shortened: as §1
# Vorinostat + Pemetrexed = compound: O=C(CCCCCCC(=O)Nc1ccccc1)NO [Vorinostat] + Nc1nc2[nH]cc(CCc3ccc(C(=O)N[C@@H](CCC(=O)O)C(=O)O)cc3)c2c(=O)[nH]1 [Pemetrexed] (partner 0.2 µM)
# Procedure, shortened: as §1
# Vorinostat + AZD7762 = compound: O=C(CCCCCCC(=O)Nc1ccccc1)NO [Vorinostat] + NC(=O)Nc1cc(-c2cccc(F)c2)sc1C(=O)N[C@H]1CCCNC1 [AZD7762] (partner 0.2 µM)
# Procedure, shortened: as §1
# Vorinostat + Tozasertib = compound: O=C(CCCCCCC(=O)Nc1ccccc1)NO [Vorinostat] + Cc1cc(Nc2cc(N3CCN(C)CC3)nc(Sc3ccc(NC(=O)C4CC4)cc3)n2)n[nH]1 [Tozasertib] (partner 0.1 µM)
# Procedure, shortened: as §1
cell line,measurement,setting,value
NCI-H1299,relative viability,Vorinostat + Foretinib; first compound 0.253 µM,1.05
same,relative viability,Vorinostat + Foretinib; first compound 0.8 µM,1.06
same,relative viability,Vorinostat + Foretinib; first compound 2.53 µM,0.717
same,relative viability,Vorinostat + Foretinib; first compound 8 µM,0.277
same,relative viability,Vorinostat + Bortezomib; first compound 0.253 µM,1.07
same,relative viability,Vorinostat + Bortezomib; first compound 0.8 µM,1.03
same,relative viability,Vorinostat + Bortezomib; first compound 2.53 µM,0.826
same,relative viability,Vorinostat + Bortezomib; first compound 8 µM,0.343
same,relative viability,Vorinostat + Pictilisib; first compound 0.253 µM,1.1
same,relative viability,Vorinostat + Pictilisib; first compound 0.8 µM,0.677
same,relative viability,Vorinostat + Pictilisib; first compound 2.53 µM,0.221
same,relative viability,Vorinostat + Pictilisib; first compound 8 µM,0.075
same,relative viability,Vorinostat + Linsitinib; first compound 0.253 µM,1.15
same,relative viability,Vorinostat + Linsitinib; first compound 0.8 µM,0.923
same,relative viability,Vorinostat + Linsitinib; first compound 2.53 µM,0.51
same,relative viability,Vorinostat + Linsitinib; first compound 8 µM,0.265
same,relative viability,Vorinostat + Crizotinib; first compound 0.253 µM,0.992
same,relative viability,Vorinostat + Crizotinib; first compound 0.8 µM,0.812
same,relative viability,Vorinostat + Crizotinib; first compound 2.53 µM,0.554
same,relative viability,Vorinostat + Crizotinib; first compound 8 µM,0.291
same,relative viability,Vorinostat + Alpelisib; first compound 0.253 µM,1.15
same,relative viability,Vorinostat + Alpelisib; first compound 0.8 µM,1.05
same,relative viability,Vorinostat + Alpelisib; first compound 2.53 µM,0.789
same,relative viability,Vorinostat + Alpelisib; first compound 8 µM,0.454
same,relative viability,Vorinostat + Navitoclax; first compound 0.253 µM,1.07
same,relative viability,Vorinostat + Navitoclax; first compound 0.8 µM,1
same,relative viability,Vorinostat + Navitoclax; first compound 2.53 µM,0.767
same,relative viability,Vorinostat + Navitoclax; first compound 8 µM,0.444
same,relative viability,Vorinostat + Lapatinib; first compound 0.253 µM,0.979
same,relative viability,Vorinostat + Lapatinib; first compound 0.8 µM,0.87
same,relative viability,Vorinostat + Lapatinib; first compound 2.53 µM,0.736
same,relative viability,Vorinostat + Lapatinib; first compound 8 µM,0.466
same,relative viability,Vorinostat + Olaparib; first compound 0.253 µM,1
same,relative viability,Vorinostat + Olaparib; first compound 0.8 µM,0.909
same,relative viability,Vorinostat + Olaparib; first compound 2.53 µM,0.642
same,relative viability,Vorinostat + Olaparib; first compound 8 µM,0.329
same,relative viability,Vorinostat; 0.253 µM,1.06
same,relative viability,Vorinostat; 0.8 µM,0.979
same,relative viability,Vorinostat; 2.53 µM,0.786
same,relative viability,Vorinostat; 8 µM,0.36
NCI-H1648,relative viability,Vorinostat + Palbociclib; first compound 0.253 µM,0.278
same,relative viability,Vorinostat + Palbociclib; first compound 0.8 µM,0.239
same,relative viability,Vorinostat + Palbociclib; first compound 2.53 µM,0.224
same,relative viability,Vorinostat + Palbociclib; first compound 8 µM,0.213
same,relative viability,Vorinostat + Decitabine; first compound 0.253 µM,0.414
same,relative viability,Vorinostat + Decitabine; first compound 0.8 µM,0.473
same,relative viability,Vorinostat + Decitabine; first compound 2.53 µM,0.215
same,relative viability,Vorinostat + Decitabine; first compound 8 µM,0.22
same,relative viability,Vorinostat + Trametinib; first compound 0.253 µM,0.596
same,relative viability,Vorinostat + Trametinib; first compound 0.8 µM,0.494
same,relative viability,Vorinostat + Trametinib; first compound 2.53 µM,0.191
same,relative viability,Vorinostat + Trametinib; first compound 8 µM,0.191
same,relative viability,Vorinostat + OSI-027; first compound 0.253 µM,0.252
same,relative viability,Vorinostat + OSI-027; first compound 0.8 µM,0.267
same,relative viability,Vorinostat + OSI-027; first compound 2.53 µM,0.28
same,relative viability,Vorinostat + OSI-027; first compound 8 µM,0.263
same,relative viability,Vorinostat + Pemetrexed; first compound 0.253 µM,0.598
same,relative viability,Vorinostat + Pemetrexed; first compound 0.8 µM,0.595
same,relative viability,Vorinostat + Pemetrexed; first compound 2.53 µM,0.428
same,relative viability,Vorinostat + Pemetrexed; first compound 8 µM,0.241
same,relative viability,Vorinostat + AZD7762; first compound 0.253 µM,0.51
same,relative viability,Vorinostat + AZD7762; first compound 0.8 µM,0.496
same,relative viability,Vorinostat + AZD7762; first compound 2.53 µM,0.331
same,relative viability,Vorinostat + AZD7762; first compound 8 µM,0.212
same,relative viability,Vorinostat + Tozasertib; first compound 0.253 µM,0.457
same,relative viability,Vorinostat + Tozasertib; first compound 0.8 µM,0.319
same,relative viability,Vorinostat + Tozasertib; first compound 2.53 µM,0.161
same,relative viability,Vorinostat + Tozasertib; first compound 8 µM,0.158
same,relative viability,Vorinostat + Olaparib; first compound 0.253 µM,1.13
same,relative viability,Vorinostat + Olaparib; first compound 0.8 µM,0.674
same,relative viability,Vorinostat + Olaparib; first compound 2.53 µM,0.212
same,relative viability,Vorinostat + Olaparib; first compound 8 µM,0.201
same,relative viability,Vorinostat; 0.253 µM,0.815
same,relative viability,Vorinostat; 0.8 µM,0.725
same,relative viability,"Vorinostat; 1 µM, anchor plate",0.596
same,relative viability,Vorinostat; 2.53 µM,0.252
same,relative viability,Vorinostat; 8 µM,0.209
Calu-6,relative viability,Vorinostat + Foretinib; first compound 0.253 µM,0.975
same,relative viability,Vorinostat + Foretinib; first compound 0.8 µM,0.728
same,relative viability,Vorinostat + Foretinib; first compound 2.53 µM,0.183
same,relative viability,Vorinostat + Foretinib; first compound 8 µM,0.0381
same,relative viability,Vorinostat + Bortezomib; first compound 0.253 µM,0.917
same,relative viability,Vorinostat + Bortezomib; first compound 0.8 µM,0.864
same,relative viability,Vorinostat + Bortezomib; first compound 2.53 µM,0.434
same,relative viability,Vorinostat + Bortezomib; first compound 8 µM,0.127
same,relative viability,Vorinostat + Pictilisib; first compound 0.253 µM,1.11
same,relative viability,Vorinostat + Pictilisib; first compound 0.8 µM,0.838
same,relative viability,Vorinostat + Pictilisib; first compound 2.53 µM,0.238
same,relative viability,Vorinostat + Pictilisib; first compound 8 µM,0.0615
same,relative viability,Vorinostat + Linsitinib; first compound 0.253 µM,0.995
same,relative viability,Vorinostat + Linsitinib; first compound 0.8 µM,0.868
same,relative viability,Vorinostat + Linsitinib; first compound 2.53 µM,0.293
same,relative viability,Vorinostat + Linsitinib; first compound 8 µM,0.0756
same,relative viability,Vorinostat + Crizotinib; first compound 0.253 µM,0.745
same,relative viability,Vorinostat + Crizotinib; first compound 0.8 µM,0.5
same,relative viability,Vorinostat + Crizotinib; first compound 2.53 µM,0.153
same,relative viability,Vorinostat + Crizotinib; first compound 8 µM,0.0713
same,relative viability,Vorinostat + Alpelisib; first compound 0.253 µM,1.25
same,relative viability,Vorinostat + Alpelisib; first compound 0.8 µM,0.917
same,relative viability,Vorinostat + Alpelisib; first compound 2.53 µM,0.302
same,relative viability,Vorinostat + Alpelisib; first compound 8 µM,0.0879
same,relative viability,Vorinostat + Navitoclax; first compound 0.253 µM,0.849
same,relative viability,Vorinostat + Navitoclax; first compound 0.8 µM,0.761
same,relative viability,Vorinostat + Navitoclax; first compound 2.53 µM,0.212
same,relative viability,Vorinostat + Navitoclax; first compound 8 µM,0.0656
same,relative viability,Vorinostat + Lapatinib; first compound 0.253 µM,1.12
same,relative viability,Vorinostat + Lapatinib; first compound 0.8 µM,0.876
same,relative viability,Vorinostat + Lapatinib; first compound 2.53 µM,0.416
same,relative viability,Vorinostat + Lapatinib; first compound 8 µM,0.107
same,relative viability,Vorinostat + Olaparib; first compound 0.253 µM,0.527
same,relative viability,Vorinostat + Olaparib; first compound 0.8 µM,0.377
same,relative viability,Vorinostat + Olaparib; first compound 2.53 µM,0.169
same,relative viability,Vorinostat + Olaparib; first compound 8 µM,0.078
same,relative viability,Vorinostat; 0.253 µM,1.07
same,relative viability,Vorinostat; 0.8 µM,0.894
same,relative viability,Vorinostat; 2.53 µM,0.361
same,relative viability,Vorinostat; 8 µM,0.0946
